{"source": "paper PMC5218480", "about": "(PLoS ONE, 2017)", "test_system": "MV-4-11 cells", "test": "Gene expression microarray analysis (Affymetrix PrimeView) and GSEA", "type": "cell-based, human", "design": "RFU PODN (11730768_x_at) / Fold change /veh PODN (11730768_x_at) / RFU LINC00158 (11744669_a_at) / Fold change /veh LINC00158 (11744669_a_at) / RFU DUSP10 (11751237_a_at) / Fold change /veh DUSP10 (11751237_a_at) / RFU ID3 (11757404_x_at) / Fold change /veh ID3 (11757404_x_at) / RFU PLEKHG5 (11737974_s_at) / Fold change /veh PLEKHG5 (11737974_s_at) / RFU LRRC4B (11730491_at) / Fold change /veh LRRC4B (11730491_at) / RFU GIMAP4 (11747438_a_at) / Fold change /veh GIMAP4 (11747438_a_at) / RFU KRT8 (11758183_x_at) / Fold change /veh KRT8 (11758183_x_at) / RFU CNN1 (11734310_a_at) / Fold change /veh CNN1 (11734310_a_at) / RFU VPS37D (11726825_at) / Fold change /veh VPS37D (11726825_at) / RFU C10orf10 (11716522_x_at) / Fold change /veh C10orf10 (11716522_x_at) / RFU KIR2DL2 /// KIR2DL4 /// KIR2DL5A /// KIR2DL5B /// KIR2DS1 /// KIR2DS2 /// KIR2DS3 /// KIR2DS4 /// KIR3DL3 /// KIR3DL3 /// KIR3DS1 (11738374_at) / Fold change /veh KIR2DL2 /// KIR2DL4 /// KIR2DL5A /// KIR2DL5B /// KIR2DS1 /// KIR2DS2 /// KIR2DS3 /// KIR2DS4 /// KIR3DL3 /// KIR3DL3 /// KIR3DS1 (11738374_at) / RFU C1QL1 (11718748_at) / Fold change /veh C1QL1 (11718748_at) / RFU TMPRSS4 (11747572_a_at) / Fold change /veh TMPRSS4 (11747572_a_at) / RFU HAMP (11756126_x_at) / Fold change /veh HAMP (11756126_x_at) / RFU RNFT2 (11725882_a_at) / Fold change /veh RNFT2 (11725882_a_at) / RFU NR4A2 (11747474_a_at) / Fold change /veh NR4A2 (11747474_a_at) / RFU ABCC12 (11746883_a_at) / Fold change /veh ABCC12 (11746883_a_at) / RFU TMEM136 (11760407_x_at) / Fold change /veh TMEM136 (11760407_x_at) / RFU CLDN22 /// WWC2 (11732394_at) / Fold change /veh CLDN22 /// WWC2 (11732394_at) / RFU HLA-DPB1 (11760878_x_at) / Fold change /veh HLA-DPB1 (11760878_x_at) / RFU SPINT1 (11716480_a_at) / Fold change /veh SPINT1 (11716480_a_at) / RFU GAP43 (11754022_s_at) / Fold change /veh GAP43 (11754022_s_at) / RFU A4GNT (11735810_at) / Fold change /veh A4GNT (11735810_at) / RFU PRB3 (11715151_x_at) / Fold change /veh PRB3 (11715151_x_at) / RFU TUBB4B (11761932_at) / Fold change /veh TUBB4B (11761932_at) / RFU CAPN14 (11732068_a_at) / Fold change /veh CAPN14 (11732068_a_at) / RFU TMCC2 (11721928_a_at) / Fold change /veh TMCC2 (11721928_a_at) / RFU IRGQ (11745062_a_at) / Fold change /veh IRGQ (11745062_a_at) / RFU FAM174B (11720279_a_at) / Fold change /veh FAM174B (11720279_a_at) / RFU TMPRSS4 (11748680_a_at) / Fold change /veh TMPRSS4 (11748680_a_at) / RFU FAM212B (11763350_a_at) / Fold change /veh FAM212B (11763350_a_at) / RFU PLEKHG5 (11743358_a_at) / Fold change /veh PLEKHG5 (11743358_a_at) / RFU ZSCAN30 (11745921_a_at) / Fold change /veh ZSCAN30 (11745921_a_at) / RFU CMKLR1 (11741424_a_at) / Fold change /veh CMKLR1 (11741424_a_at) / RFU LOC101060620 /// MAPK8IP1 (11723275_at) / Fold change /veh LOC101060620 /// MAPK8IP1 (11723275_at) / RFU SPTSSB (11747773_x_at) / Fold change /veh SPTSSB (11747773_x_at) / RFU PRSS12 (11739890_at) / Fold change /veh PRSS12 (11739890_at) / RFU BIN1 (11741810_x_at) / Fold change /veh BIN1 (11741810_x_at) / RFU WNT11 (11732464_a_at) / Fold change /veh WNT11 (11732464_a_at) / RFU C10orf10 (11716521_a_at) / Fold change /veh C10orf10 (11716521_a_at) / RFU C5orf56 (11738089_at) / Fold change /veh C5orf56 (11738089_at) / RFU CYB561 (11721691_x_at) / Fold change /veh CYB561 (11721691_x_at) / RFU ANKRD19P (11752326_a_at) / Fold change /veh ANKRD19P (11752326_a_at) / RFU OR2T12 /// OR2T33 /// OR2T8 (11738714_s_at) / Fold change /veh OR2T12 /// OR2T33 /// OR2T8 (11738714_s_at) / RFU VCAN (11748164_a_at) / Fold change /veh VCAN (11748164_a_at) / RFU JSRP1 (11732532_at) / Fold change /veh JSRP1 (11732532_at) / RFU KRTAP10-11 (11738290_x_at) / Fold change /veh KRTAP10-11 (11738290_x_at) / RFU MYO3A (11730013_a_at) / Fold change /veh MYO3A (11730013_a_at) / RFU EBF3 (11725865_a_at) / Fold change /veh EBF3 (11725865_a_at) / RFU CAMK2N1 (11719241_x_at) / Fold change /veh CAMK2N1 (11719241_x_at) / RFU C5orf56 (11738088_a_at) / Fold change /veh C5orf56 (11738088_a_at) / RFU OLFML3 (11715873_a_at) / Fold change /veh OLFML3 (11715873_a_at) / RFU LOC100653217 /// NTM (11731650_a_at) / Fold change /veh LOC100653217 /// NTM (11731650_a_at) / RFU MAPK11 (11762145_a_at) / Fold change /veh MAPK11 (11762145_a_at) / RFU FIZ1 (11724087_x_at) / Fold change /veh FIZ1 (11724087_x_at) / RFU OASL (11726364_x_at) / Fold change /veh OASL (11726364_x_at) / RFU SOX15 (11748057_x_at) / Fold change /veh SOX15 (11748057_x_at) / RFU CD79A (11719716_a_at) / Fold change /veh CD79A (11719716_a_at) / RFU HIST1H1D (11736915_at) / Fold change /veh HIST1H1D (11736915_at) / RFU CASKIN2 (11723855_a_at) / Fold change /veh CASKIN2 (11723855_a_at) / RFU LOC730098 (11760151_x_at) / Fold change /veh LOC730098 (11760151_x_at) / RFU OR4N2 (11742367_at) / Fold change /veh OR4N2 (11742367_at) / RFU PRRT2 (11749266_a_at) / Fold change /veh PRRT2 (11749266_a_at) / RFU SNX32 (11753110_a_at) / Fold change /veh SNX32 (11753110_a_at) / RFU CDHR5 (11726645_a_at) / Fold change /veh CDHR5 (11726645_a_at) / RFU RCAN1 (11760418_a_at) / Fold change /veh RCAN1 (11760418_a_at) / RFU FAM167A (11723789_a_at) / Fold change /veh FAM167A (11723789_a_at) / RFU FAM26E (11764081_at) / Fold change /veh FAM26E (11764081_at) / RFU ISYNA1 (11749810_s_at) / Fold change /veh ISYNA1 (11749810_s_at) / RFU ACY1 (11761880_at) / Fold change /veh ACY1 (11761880_at) / RFU 11764098_at / Fold change /veh 11764098_at / RFU SAMD14 (11745864_x_at) / Fold change /veh SAMD14 (11745864_x_at) / RFU NPB (11741838_a_at) / Fold change /veh NPB (11741838_a_at) / RFU TMPRSS6 (11731388_a_at) / Fold change /veh TMPRSS6 (11731388_a_at) / RFU KRTAP10-2 (11738614_at) / Fold change /veh KRTAP10-2 (11738614_at) / RFU ARHGAP8 /// PRR5-ARHGAP8 (11727945_x_at) / Fold change /veh ARHGAP8 /// PRR5-ARHGAP8 (11727945_x_at) / RFU KRTAP5-7 /// NADSYN1 (11734609_at) / Fold change /veh KRTAP5-7 /// NADSYN1 (11734609_at) / RFU RASL12 (11751679_a_at) / Fold change /veh RASL12 (11751679_a_at) / RFU CDKN2B (11736163_a_at) / Fold change /veh CDKN2B (11736163_a_at) / RFU PRF1 (11729649_at) / Fold change /veh PRF1 (11729649_at) / RFU, ZNF638 /// ZNF638-IT1 / Fold change vs veh, ZNF638 /// ZNF638-IT1 / RFU, PANK3 / Fold change vs veh, PANK3 / RFU, SH3YL1 / Fold change vs veh, SH3YL1 / RFU, ZEB2 / Fold change vs veh, ZEB2 / RFU, NRIP1 / Fold change vs veh, NRIP1 / RFU, PTTG1IP / Fold change vs veh, PTTG1IP / RFU, CAPN2 / Fold change vs veh, CAPN2 / RFU, MED14 / Fold change vs veh, MED14 / RFU, SNORA58 / Fold change vs veh, SNORA58 / RFU, C1orf63 / Fold change vs veh, C1orf63 / RFU, LRRFIP1 / Fold change vs veh, LRRFIP1 / RFU, NDUFAF7 / Fold change vs veh, NDUFAF7 / RFU, SLC12A2 / Fold change vs veh, SLC12A2 / RFU, IBTK / Fold change vs veh, IBTK / RFU, ESF1 / Fold change vs veh, ESF1 / Fold change vs veh, TMEM50B / RFU, TAOK1 / Fold change vs veh, TAOK1 / RFU, ACBD3 / Fold change vs veh, ACBD3 / RFU, TMA16 / Fold change vs veh, TMA16 / RFU, RWDD3 / Fold change vs veh, RWDD3 / RFU, BCAT1 / Fold change vs veh, BCAT1 / RFU, EDEM3 / Fold change vs veh, EDEM3 / RFU, TMEM33 / Fold change vs veh, TMEM33 / RFU, WDR75 / Fold change vs veh, WDR75 / RFU, AHCTF1 / Fold change vs veh, AHCTF1 / RFU, TFRC / Fold change vs veh, TFRC / RFU, ZDHHC17 / Fold change vs veh, ZDHHC17 / RFU, NOM1 / Fold change vs veh, NOM1 / RFU, ARL8B / Fold change vs veh, ARL8B / RFU, ZBTB11 / Fold change vs veh, ZBTB11 / RFU, TAMM41 / Fold change vs veh, TAMM41 / RFU, KIAA1704 /// LOC100996395 / Fold change vs veh, KIAA1704 /// LOC100996395 / RFU, ING1 / Fold change vs veh, ING1 / RFU, TRMT61B / Fold change vs veh, TRMT61B / RFU, FUBP3 / Fold change vs veh, FUBP3 / RFU, TP53 / Fold change vs veh, TP53 / RFU, TNKS2 / Fold change vs veh, TNKS2 / RFU, ZFP14 / Fold change vs veh, ZFP14 / RFU, ACTR2 / Fold change vs veh, ACTR2 / RFU, PPP3R1 / Fold change vs veh, PPP3R1 / RFU, PIK3R1 / Fold change vs veh, PIK3R1 / RFU, HNRNPA1 / Fold change vs veh, HNRNPA1 / RFU, RNF170 / Fold change vs veh, RNF170 / RFU, ZNF28 / Fold change vs veh, ZNF28 / RFU, RNGTT / Fold change vs veh, RNGTT / RFU, OGT / Fold change vs veh, OGT / RFU, BRD1 / Fold change vs veh, BRD1 / RFU, MARS / Fold change vs veh, MARS / RFU, ZNF655 / Fold change vs veh, ZNF655 / RFU, FAHD1 / Fold change vs veh, FAHD1 / RFU, BDP1 / Fold change vs veh, BDP1 / RFU, LRRCC1 / Fold change vs veh, LRRCC1 / RFU, ARID1A / Fold change vs veh, ARID1A / RFU, ZNF146 / Fold change vs veh, ZNF146 / RFU, ZNF330 / Fold change vs veh, ZNF330 / RFU, GPN3 / Fold change vs veh, GPN3 / RFU, C9orf123 / Fold change vs veh, C9orf123 / RFU, N4BP2L2 / Fold change vs veh, N4BP2L2 / RFU, ARFIP1 / Fold change vs veh, ARFIP1 / RFU, FAM179B / Fold change vs veh, FAM179B / RFU, BCL10 / Fold change vs veh, BCL10 / RFU, UHRF1BP1L / Fold change vs veh, UHRF1BP1L / RFU, BET1 / Fold change vs veh, BET1 / RFU, CNOT2 / Fold change vs veh, CNOT2 / RFU, ZNF268 / Fold change vs veh, ZNF268 / Fold change vs veh, ZNF507 / RFU, DGCR2 / Fold change vs veh, DGCR2 / RFU, WDSUB1 / Fold change vs veh, WDSUB1 / Fold change vs veh, HSP90B1 /// MIR3652 / RFU, ADSS / Fold change vs veh, ADSS / RFU, GK / Fold change vs veh, GK / RFU, ZNF148 / Fold change vs veh, ZNF148 / RFU, TAF9 / Fold change vs veh, TAF9 / RFU, SLC1A5 / Fold change vs veh, SLC1A5 / RFU, SLMO2 / Fold change vs veh, SLMO2 / RFU, ABCC4 / Fold change vs veh, ABCC4 / RFU, LOC101060439 /// RAP1B / Fold change vs veh, LOC101060439 /// RAP1B / RFU, RFX7 / Fold change vs veh, RFX7 / RFU, GTPBP10 / Fold change vs veh, GTPBP10 / RFU, CNEP1R1 / Fold change vs veh, CNEP1R1 / RFU, BIVM-ERCC5 /// ERCC5 / Fold change vs veh, BIVM-ERCC5 /// ERCC5 / RFU, ILF3 / Fold change vs veh, ILF3 / RFU 11762660_at / Fold change /veh 11762660_at / RFU VCAN (11757783_s_at) / Fold change /veh VCAN (11757783_s_at) / RFU DDX43 (11728927_at) / Fold change /veh DDX43 (11728927_at) / RFU KRT8 (11758188_x_at) / Fold change /veh KRT8 (11758188_x_at) / RFU NKD1 (11759106_at) / Fold change /veh NKD1 (11759106_at) / RFU SRD5A1 (11742802_a_at) / Fold change /veh SRD5A1 (11742802_a_at) / RFU TPSAB1 /// TPSB2 (11721975_s_at) / Fold change /veh TPSAB1 /// TPSB2 (11721975_s_at) / RFU GSTM3 (11746129_a_at) / Fold change /veh GSTM3 (11746129_a_at) / RFU IL23R (11737362_x_at) / Fold change /veh IL23R (11737362_x_at) / RFU TMEM51 (11727254_a_at) / Fold change /veh TMEM51 (11727254_a_at) / RFU PIWIL2 (11732686_x_at) / Fold change /veh PIWIL2 (11732686_x_at) / RFU ORM1 (11744905_x_at) / Fold change /veh ORM1 (11744905_x_at) / RFU CCDC152 (11743942_at) / Fold change /veh CCDC152 (11743942_at) / RFU ECM1 (11717891_a_at) / Fold change /veh ECM1 (11717891_a_at) / RFU IL23R (11748794_a_at) / Fold change /veh IL23R (11748794_a_at) / RFU TNFAIP8L3 (11732012_x_at) / Fold change /veh TNFAIP8L3 (11732012_x_at) / RFU MBOAT4 (11741988_at) / Fold change /veh MBOAT4 (11741988_at) / RFU 11764193_at / Fold change /veh 11764193_at / RFU TMEM53 (11763286_at) / Fold change /veh TMEM53 (11763286_at) / RFU MAGEB2 (11727129_at) / Fold change /veh MAGEB2 (11727129_at) / RFU TMEM200A (11744735_a_at) / Fold change /veh TMEM200A (11744735_a_at) / RFU CCDC152 (11751479_a_at) / Fold change /veh CCDC152 (11751479_a_at) / RFU FAM211A (11726209_a_at) / Fold change /veh FAM211A (11726209_a_at) / RFU RGS16 (11746705_a_at) / Fold change /veh RGS16 (11746705_a_at) / RFU VCAN (11755009_s_at) / Fold change /veh VCAN (11755009_s_at) / RFU RHOB (11743442_s_at) / Fold change /veh RHOB (11743442_s_at) / RFU RGS16 (11720943_a_at) / Fold change /veh RGS16 (11720943_a_at) / RFU RGS16 (11720944_at) / Fold change /veh RGS16 (11720944_at) / RFU, VPS4B / Fold change vs veh, VPS4B / RFU, CREB1 / Fold change vs veh, CREB1 / RFU, DNAJC13 / Fold change vs veh, DNAJC13 / RFU, GNAQ / Fold change vs veh, GNAQ / RFU, CDK5R1 / Fold change vs veh, CDK5R1 / RFU, ZRANB3 / Fold change vs veh, ZRANB3 / RFU, CUL4A / Fold change vs veh, CUL4A / RFU, CCNY / Fold change vs veh, CCNY / RFU, UFL1 / Fold change vs veh, UFL1 / RFU, COG3 / Fold change vs veh, COG3 / RFU, DIAPH2 / Fold change vs veh, DIAPH2 / RFU, SKA2 / Fold change vs veh, SKA2 / RFU, AFF3 / Fold change vs veh, AFF3 / RFU, LMF1 / Fold change vs veh, LMF1 / RFU, IPO11 / Fold change vs veh, IPO11 / RFU, DFFB / Fold change vs veh, DFFB / RFU, FOXP1 / Fold change vs veh, FOXP1 / RFU, CARD8 / Fold change vs veh, CARD8 / RFU, STRN3 / Fold change vs veh, STRN3 / RFU, ADK / Fold change vs veh, ADK / RFU, RASSF2 / Fold change vs veh, RASSF2 / RFU, WIPF1 / Fold change vs veh, WIPF1 / RFU, LARP1B / Fold change vs veh, LARP1B / RFU, RASA1 / Fold change vs veh, RASA1 / RFU, RB1 / Fold change vs veh, RB1 / RFU, PPFIA1 / Fold change vs veh, PPFIA1 / RFU, MAT2A / Fold change vs veh, MAT2A / RFU, CCT5 / Fold change vs veh, CCT5 / RFU, WDR92 / Fold change vs veh, WDR92 / RFU, CUX1 / Fold change vs veh, CUX1 / RFU, TTC7A / Fold change vs veh, TTC7A / RFU, TMEM135 / Fold change vs veh, TMEM135 / RFU, DEPTOR / Fold change vs veh, DEPTOR / RFU, CPM / Fold change vs veh, CPM / RFU, DNAJB6 / Fold change vs veh, DNAJB6 / RFU, CACNA2D3 / Fold change vs veh, CACNA2D3 / RFU, DTX4 / Fold change vs veh, DTX4 / RFU, TFCP2 / Fold change vs veh, TFCP2 / RFU, GMCL1 /// GMCL1P1 / Fold change vs veh, GMCL1 /// GMCL1P1 / RFU, AEBP2 / Fold change vs veh, AEBP2 / RFU, SNHG1 /// SNORD22 /// SNORD25 /// SNORD26 /// SNORD27 /// SNORD28 /// SNORD29 /// SNORD31 / Fold change vs veh, SNHG1 /// SNORD22 /// SNORD25 /// SNORD26 /// SNORD27 /// SNORD28 /// SNORD29 /// SNORD31 / Fold change (Aza/veh), C12orf56 (ProbeSet 11735607_a_at) / Fold change (ACY-1035/veh), C12orf56 (ProbeSet 11735607_a_at) / Fold change (Aza/veh), FGFR1OP (ProbeSet 11751329_s_at) / Fold change (ACY-1035/veh), FGFR1OP (ProbeSet 11751329_s_at) / Fold change (Aza/veh), VPS36 (ProbeSet 11739960_a_at) / Fold change (ACY-1035/veh), VPS36 (ProbeSet 11739960_a_at) / RFU SYPL1 (11715823_x_at) / Fold change /veh SYPL1 (11715823_x_at) / RFU IGFBP7 (11715501_s_at) / Fold change /veh IGFBP7 (11715501_s_at) / RFU REEP3 (11722064_at) / Fold change /veh REEP3 (11722064_at) / RFU IGLL1 (11728026_x_at) / Fold change /veh IGLL1 (11728026_x_at): dose or concentration left out as unconfirmed", "conditions": "MV-4-11 cells, 48 hours"}
{"smiles": "Nc1ccc(-c2cccs2)cc1NC(=O)c1ccc2c(c1)cc(C1CC1)n2CCN1CCOCC1", "note": "[ACY-1035]", "values": [{"measurement": "Fold change /veh TPSAB1 /// TPSB2 (11721975_s_at)", "value": 0.95}]}
